# Experimental data published in patent US9067898B1, “Isothiazole derivatives as GPR120 agonists for the treatment of type II diabetes” (Janssen Pharmaceutica NV, priority 2014, dated 2015).
# Columns and labels:
# [1] = biological target: T1, long form of human GPR120 (Homo sapiens, UniProt Q5NUL3); experiment: Human GPR120 DiscoveRx PathHunter Beta-Arrestin assay, Procedure β-arrestin A; type: cell-based; conditions: PathHunter CHO-K1 GPR120 β-Arrestin cell line, 3000 cells per well, read-out: hGPR120 β-arrestin A EC50
# T1 construct: host or cells: PathHunter CHO-K1 GPR120 β-Arrestin Cell Line
# Description: The binding of an agonist (medium/long chain fatty acids or small molecule agonists) to the G-protein-coupled receptor GPR120 activates phospholipase C, leading to release of intracellular Ca^+2 through the generation of inositol 1,4,5-trisphosphate (InsP3 or IP3). GPR120 activation can also trigger intracellular signaling via recruitment of Beta-Arrestin. In the present method, agonist-induced activation of the human GPR120 receptor is monitored through the use of PathHunter CHO-K1 GPR120 Beta-Arrestin Cell Line engineered by DiscoveRx, as detailed below. The cell lines are designed to co-express both the ProLink/Enzyme Donor (PK)-tagged GPCR and the Enzyme […] (EA)-tagged Beta-Arrestin fusion proteins. Upon GPR120 receptor stimulation/activation, the EA-tagged Beta-Arrestin portion is translocated to the tagged receptor, where the two enzyme fragments are brought within close proximity. Under these conditions, these fragments can interact and form an active Beta-gal enzyme complex through Enzyme Fragment Complementation (EFC). This active Beta-gal complex can enzymatically hydrolyse the substrate to produce a detectable light signal; therefore, activation as a function of agonist concentration can be expressed as an EC50 value to determine relative compound activities. This in vitro assay therefore serves to assess compound agonist activity of the GPR120. Procedure β-Arrestin A: In Procedure β-arrestin A, the cell used were PathHunter CHO-K1 GPR120 β-Arrestin Cell Line, expressing the long form of human GPR120 (Genbank accession number NM 181745), with 3000 cells per well. Procedure β-Arrestin B: In Procedure 3-arrestin B the cells used were PathHunter CHO-K1 GPR120S β-Arrestin Cell Line, expressing the short form of the GPR120 receptor (Accession #NM_181745), with 5000 cells/well. Assay Procedure:
# The selected CHO-K1 GPR120 β-Arrestin cells were cultured in Ham's F12 media supplemented with 10% fetal bovine serum (FBS), 1% Glutamine, lx p/s, 800 μg/mL G418 and 300 μg/mL Hygromycin B (for selection). Cell stocks were maintained and grown in a sub-confluent state using standard cell culture procedures. The day before the experiment, the cells were harvested with non-enzymatic cell dissociation buffer and re-suspended in complete growth media at the desired concentration. A Corning 384-plate was then seeded with the proper number of cells in a volume of 25 μL, per well. The seeded plates were incubated overnight at 37° C.
# On the day of the experiment, the Assay Buffer containing (a) HBSS with Ca^++ and Mg^++, (b) 20 mM HEPES, and (c) 0.1% BSA stabilizer (pH 7.4) was prepared. The growth medium was gently removed from the cell plates and 20 μL of Assay Buffer added to each well. The plate was then incubated at 37° C. for 60 min. Test compounds were serially diluted in Assay Buffer to desired concentrations (more particularly to one or more of the following μM concentrations: 25, 12.5, 6.25, 3.125, 1.5625, 0.78125, 0.390625, 0.1953125, 0.09765625, 0.048828125, 0.024414063, 0.012207031). Five μL of compound dilution was then added to each well and the plate incubated at 37° C. for 90 min. The detection reagents were prepared according to the manufacture's instruction. Twelve μL of the detection reagents were added to each well and the plate incubated at room temperature for 60 min.
# The plates were read on an EnVision instrument, using Protocol name: Luminescence, Plate type: 384 Costar, Measurement height: 3 mm, Measurement time: 1 s, Aperture: 384 Plate aperture. The % activity relative to the positive control was calculated using the following equation:
# The % Activity values were plotted versus the concentration of test compound and fitted to a sigmoidal dose-response curve with a Hill slope=1 (fixed value) using nonlinear regression with GraphPad Prism 5.0 to calculate the EC50 values. […]
# [2] = biological target: T2, Human GPR120 short form (Homo sapiens, UniProt Q5NUL3); experiment: Human GPR120 calcium flux assay (FLIPR), Procedure Calcium A; type: cell-based; conditions: HEK-293 cells expressing human GPR120 short form, 2500 cells/well; read-out: GPR120 Ca2+ Assay A EC50
# T2 construct: expressed in transfected cells
# T2 sequence (Q5NUL3 1-361): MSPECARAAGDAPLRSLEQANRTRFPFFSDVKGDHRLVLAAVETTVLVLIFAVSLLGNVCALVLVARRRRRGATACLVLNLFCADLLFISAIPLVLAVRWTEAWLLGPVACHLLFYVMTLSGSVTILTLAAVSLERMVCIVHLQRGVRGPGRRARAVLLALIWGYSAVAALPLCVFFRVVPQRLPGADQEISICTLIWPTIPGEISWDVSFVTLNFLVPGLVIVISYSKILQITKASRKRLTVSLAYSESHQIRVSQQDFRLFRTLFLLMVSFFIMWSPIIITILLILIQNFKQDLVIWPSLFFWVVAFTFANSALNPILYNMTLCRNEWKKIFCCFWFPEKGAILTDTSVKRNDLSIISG
# Method in brief: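 HEK293 cells stably expressing the short isoform (NM_001195755.1), 2500/well, starved 1 h, then loaded with Fluo-4 NW plus probenecid (30 min 37 °C, 15 min RT). Compound solutions 0.012–100 μM, 0.2% DMSO final; FLIPR read 300 s after addition. EC50 from Fmax−Fmin fitted to variable-slope sigmoid (Hill <2).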
# T1 sequence (Q5NUL3 1-377 isoform Q5NUL3-1): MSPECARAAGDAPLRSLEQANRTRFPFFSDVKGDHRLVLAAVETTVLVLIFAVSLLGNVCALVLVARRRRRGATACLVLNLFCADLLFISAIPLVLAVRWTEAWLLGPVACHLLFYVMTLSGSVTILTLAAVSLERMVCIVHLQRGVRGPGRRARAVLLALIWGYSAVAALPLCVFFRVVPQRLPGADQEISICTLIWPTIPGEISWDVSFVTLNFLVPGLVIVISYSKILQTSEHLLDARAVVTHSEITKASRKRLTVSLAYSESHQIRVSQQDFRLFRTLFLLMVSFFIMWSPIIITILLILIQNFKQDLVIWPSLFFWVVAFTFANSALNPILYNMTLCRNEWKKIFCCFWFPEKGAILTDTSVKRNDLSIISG
# T1 sequence (P32121 whole entry partner): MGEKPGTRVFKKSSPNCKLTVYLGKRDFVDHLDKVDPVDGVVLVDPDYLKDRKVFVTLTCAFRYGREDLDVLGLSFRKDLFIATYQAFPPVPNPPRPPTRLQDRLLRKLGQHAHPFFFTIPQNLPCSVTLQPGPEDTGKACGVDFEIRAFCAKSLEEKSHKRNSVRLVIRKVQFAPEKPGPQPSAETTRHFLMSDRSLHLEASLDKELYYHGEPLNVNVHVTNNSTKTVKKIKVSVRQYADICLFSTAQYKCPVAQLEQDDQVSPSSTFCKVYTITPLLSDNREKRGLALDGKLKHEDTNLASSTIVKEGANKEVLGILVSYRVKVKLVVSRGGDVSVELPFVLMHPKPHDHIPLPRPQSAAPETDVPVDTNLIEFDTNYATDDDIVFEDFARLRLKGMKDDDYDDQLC
Compound,EC50 [1],EC50 [2]
"CCc1ccc(-c2nsc(C(F)(F)F)c2COc2c(F)cc(CC(C)CO)cc2F)cc1 (centres unmarked) [Cpd 216, 3-(4-[[3-(4-ethylphenyl)-5-(trifluoromethyl)-1,2-thiazol-4-yl]methoxy]-3,5-difluorophenyl)-2-methylpropan-1-ol]",466 nM,674 nM
"Cc1c(CCC(=O)O)ccc(OCc2c(Cl)nsc2-c2ccccc2Cl)c1C [Cpd 104, 3-(4-[[3-chloro-5-(2-chlorophenyl)-1,2-thiazol-4-yl]methoxy]-2,3-dimethylphenyl)propanoic acid]",399 nM,83 nM
"COc1ccc(-c2csc(C(F)(F)F)c2COc2c(F)cc(CCC(=O)O)cc2F)cc1 [Cpd 34, 3-(3,5-difluoro-4-((4-(4-methoxyphenyl)-2-(trifluoromethyl)thiophen-3-yl)methoxy)phenyl)propanoic acid]",208 nM,65 nM
"CCc1ccc(-c2nsc(C(F)(F)F)c2COc2c(F)cc(CCCO)cc2F)cc1 [Cpd 135, 3-(4-((3-(4-ethylphenyl)-5-(trifluoromethyl)isothiazol-4-yl)methoxy)-3,5-difluorophenyl)propan-1-61]",58 nM,134 nM
"O=C(O)CCc1cc(F)c(OCc2c(-c3c(F)cc(Cl)cc3F)nsc2C(F)(F)F)c(F)c1 [Cpd 96, 3-(4-((3-(4-chloro-2,6-difluorophenyl)-5-(trifluoromethyl)isothiazol-4-yl)methoxy)-3,5-difluorophenyl)propanoic acid]",287 nM,73 nM
"O=C(O)CCc1cc(F)c(OCc2c(-c3ccc(Cl)cc3)csc2C(F)(F)F)c(F)c1F [Cpd 50, 3-(4-((4-(4-chlorophenyl)-2-(trifluoromethyl)thiophen-3-yl)methoxy)-2,3,5-trifluorophenyl)propanoic acid]",100 nM,171 nM
"O=C(O)CCc1cc(F)c(OCc2c(-c3ccc4c(c3)OCO4)nsc2C(F)(F)F)c(F)c1 [Cpd 87, 3-(4-[[3-(2H-1,3-benzodioxol-5-yl)-5-(trifluoromethyl)-1,2-thiazol-4-yl]methoxy]-3,5-difluorophenyl)propanoic acid]",88 nM,62 nM
"Cc1cc(OCc2c(-c3ccc(Cl)c(F)c3)nsc2C(F)(F)F)c(F)cc1CCC(=O)O [Cpd 148, 3-(4-((3-(4-chloro-3-fluorophenyl)-5-(trifluoromethyl)isothiazol-4-yl)methoxy)-5-fluoro-2-methylphenyl)propanoic acid]",242 nM,165 nM
"CCc1ccc(-c2nsc(C(F)(F)F)c2COc2ccc(CCCO)c(F)c2F)cc1 [Cpd 139, 3-(4-((3-(4-ethylphenyl)-5-(trifluoromethyl)isothiazol-4-yl)methoxy)-2,3-difluorophenyl)propan-1-ol]",77 nM,138 nM
"CC(CO)Cc1cc(F)c(OCc2c(-c3ccc(Cl)cc3)nsc2C(F)(F)F)c(F)c1 (centres unmarked) [Cpd 230, 3-(4-[[3-(4-chlorophenyl)-5-(trifluoromethyl)-1,2-thiazol-4-yl]methoxy]-3,5-difluorophenyl)-2-methylpropan-1-ol]",474 nM,1020 nM
"O=C(O)CCc1cc(F)c(OCc2c(-c3ccc(Cl)cc3)csc2C(F)(F)F)c(F)c1 [Cpd 35, 3-(4-((4-(4-chlorophenyl)-2-(trifluoromethyl)thiophen-3-yl)methoxy)-3,5-difluorophenyl)propanoic acid]",270 nM,70 nM
"3-(4-((4-(4-ethylphenyl)thiophen-3-yl)methoxy)-3,5-difluorophenyl)propanoic acid [Cpd 53]",210 nM,690 nM
"COc1ccc(-c2csc(C(F)(F)F)c2COc2c(F)cc(CCCO)cc2F)cn1 [Cpd 38, 3-(3,5-difluoro-4-((4-(6-methoxypyridin-3-yl)-2-(trifluoromethyl)thiophen-3-yl)methoxy)phenyl)propan-1-61]",71 nM,101 nM
"CCc1ccc(-c2sc(C)c(C(F)(F)F)c2COc2c(F)cc(CCCO)cc2F)cc1 [Cpd 32, 3-(4-[[2-(4-ethylphenyl)-5-methyl-4-(trifluoromethyl)thiophen-3-yl]methoxy]-3,5-difluorophenyl)propan-1-ol]",31 nM,48 nM
"CCc1ccc(-c2cc(F)sc2COc2ccc(CCC(=O)O)c(F)c2F)cc1 [Cpd 12, 3-(4-[[3-(4-ethylphenyl)-5-fluorothiophen-2-yl]methoxy]-2,3-difluorophenyl)propanoic acid]",125 nM,135 nM
"COc1ccc(-c2snc(Cl)c2COc2c(F)cc(CCC(=O)O)cc2F)cc1 [Cpd 97, 3-(4-[[3-chloro-5-(4-methoxyphenyl)-1,2-thiazol-4-yl]methoxy]-3,5-difluorophenyl)propanoic acid]",338 nM,73 nM
"Cc1c(CCC(=O)O)ccc(OCc2c(Cl)nsc2-c2ccc(F)cc2)c1C [Cpd 154, 3-(4-[[3-chloro-5-(4-fluorophenyl)-1,2-thiazol-4-yl]methoxy]-2,3-dimethylphenyl)propanoic acid]",431 nM,178 nM
"CCc1ccc(-c2sccc2COc2ccc(CCC(=O)O)c(C)c2C)cc1 [Cpd 49, 3-(4-((2-(4-ethylphenyl)thiophen-3-yl)methoxy)-2,3-dimethylphenyl)propanoic acid]",304 nM,170 nM
"CCc1ccc(-c2snc(Cl)c2COc2ccc(CCC(=O)O)c(F)c2F)cc1 [Cpd 66, 3-(4-[[3-chloro-5-(4-ethylphenyl)-1,2-thiazol-4-yl]methoxy]-2,3-difluorophenyl)propanoic acid]",108 nM,19 nM
"CCc1nsc(-c2ccc(C)cc2F)c1COc1c(F)cc(CCC(=O)O)cc1F [Cpd 150, 3-(4-[[3-ethyl-5-(2-fluoro-4-methylphenyl)-1,2-thiazol-4-yl]methoxy]-3,5-difluorophenyl)propanoic acid]",240 nM,167 nM
"CCc1ccc(-c2sccc2COc2ccc(CCC(=O)O)c(F)c2F)cc1 [Cpd 48, 3-(4-((2-(4-ethylphenyl)thiophen-3-yl)methoxy)-2,3-difluorophenyl)propanoic acid]",236 nM,168 nM
"Cc1snc(-c2ccc(Cl)cc2)c1COc1ccc(CCC(=O)O)c(F)c1F [Cpd 119, 3-(4-((3-(4-chlorophenyl)-5-methylisothiazol-4-yl)methoxy)-2,3-difluorophenyl)propanoic acid]",128 nM,106 nM
